From patent publication US7858658B2, “Fluoro- and trifluoroalkyl-containing heterocyclic sulfonamide inhibitors of beta amyloid production and derivatives thereof” (Wyeth LLC, priority 2003, dated 2010) come the findings set out here.

Holding throughout (assay type): cell-based
The subject of assay [1] is beta amyloid 42. Kind of assay: Aβ40/42 ELISA Assay, Aβ42. The settings on record: CHO cells carrying the APP-REP-NL plasmid, 22 hours. The protocol: (§1) Compounds are diluted from DMSO stocks to 2 μM and below in a cell culture medium. Compounds are then applied to CHO cells carrying the APP-REP-NL plasmid [Sudhir et. al, J. Biolog. Chem. 267:25602-25608 (1992)] for a period of 22 hours. After the conditioning period, medium is collected, diluted in assay buffer containing protein, and samples, controls, and synthetic peptide standards are incubated on a prepared ELISA plate. Using a sandwich ELISA with antibodies specifically directed against the carboxyl terminus of beta amyloid 40 or 42 [analogous to the method reported by Haugabook et al., J. Neurosci. Methods 108:171-179 (2001) but using goat anti-mouse IgG1 (source: Southern Biotech) as the anchor, 6E10 as the capture antibody (Source: SENETEK), rabbit antiAβ40 and antiAβ42 (source: QCB) and APL-donkey anti-rabbit IgG (H+L, source: Southern Biotech) as the detection antibody], the effect of the compound treatment on the cellular production of extracellular beta amyloid is quantified. Cells treated with compound are subsequently incubated in cell culture medium containing […]. After a short incubation period, MTS/medium containing plates are read in a spectrophotometer to determine the extent to which compound toxicity affected the cell's metabolism and ability to synthesize beta amyloid. […]
For orientation: An ELISA detects its analyte on a solid surface through an enzyme-linked reagent.

Assay [2] relates to beta amyloid 40. Put plainly: Aβ40/42 ELISA Assay, Aβ40. The note with it: CHO cells carrying the APP-REP-NL plasmid, 22 hours. The protocol: as §1
The test system of assay [3] is amyloid precursor protein (APP) proteolysis. Put plainly: Repressor Release Assay (RRA). The note with it: all compounds tested at 20 μg/mL. The protocol:
The beta amyloid inhibitory activity of many of the compounds of the present invention has been determined using the Repressor Release Assay (RRA). See, Table 5 below. A compound is considered active in RRA if it leads to at least a 1.5 fold increase in luciferase activity at 20 μg/mL and is non-toxic.
The compounds generated as described in the Examples above are tested in the RRA in accordance with published techniques [Shuey, D. J., Sheiffele, P., Jones, D., Cockett, M. I., and Quinet, E. M. (1999), “Repressor release: a useful tool for monitoring amyloid precursor protein (APP) proteolysis in mammalian cells”, Society for Neuroscience Abstracts, Vol. 25, 29th Annual Meeting of Society for Neuroscience, Miami Beach, Fla., Oct. 23-28, 1999]. Briefly, this assay is performed as follows.
CHO-K1 cells are cultured in whole DMEM media (DMEM—High Glucose with 10% fetal bovine serum, 1% Non-essential Amino Acids, and 1% Penicillin-Streptomycin) at 37° C. with 5% CO2. Two million cells are plated into 10-cm dishes 24 hrs prior to transfection.
Transient transfections are completed as recommended by Gibco BRL using their Lipofectamine Plus® system. First, 6 μg of pRSVO-luc and 6 μg of APP-lacI construct DNA are added to 460 μL Opti-Mem transfection media and incubated with the 30 μL Plus® reagent for 15 minutes. Then, a lipid mixture of 40 μL Lipofectamine Plus® reagent and 460 μL Opti-Mem transfection media is incubated with the DNA-Plus reagent mixture for 15 minutes. During the DNA-lipid incubation, the CHO-K1 cells are washed once and covered in 5.0 mL DMEM media without Penicillin-Streptomycin. The DNA-lipid preparation is then layered onto these cells and incubated at 37° C. overnight.
One and one half million transfected cells per well (100 μL total volume) are plated into sterile, opaque Packard 96-well Cultur-Plates™ in clear DMEM whole media (DMEM—without phenol red) and incubated at 37° C. with 5% CO2 for 3-5 hours.
Compounds are diluted using two different protocols; one protocol is used for compounds supplied neat (weighed powder in vial) and the other protocol is used for compounds supplied in solution (20 mM in DMSO in 96-well plates). For both protocols, 25 mM Hepes and 25 mM Hepes/1% DMSO are prepared fresh to be used as diluent. The Hepes/DMSO is used as the diluent control on all experimental plates.
The following table depicts the steps for compound dilution (please note that the last step is the addition of compound to cells/media in tissue culture plate):
Because some compounds arrive in 96-well format at 20 mM, the following represents the protocol for their dilution (note that an average molecular weight of these compounds was used to calculate these dilutions and as above, the last step is the addition of compound to cells/media in tissue culture plate):
Once compounds are diluted, they are applied in duplicate on cells in tissue culture plates (prepared above). Cells are incubated with compound at 37° C. with 5% CO2 for an additional 36-48 hours.
Luciferase assays (the LucLite® reagent, Packard) are performed and are read on a Packard TopCount® instrument. Media is removed from each 96-well plate and replaced with 100 μL PBS per well (with Mg^2+ and Ca^2+). An equal volume (100 μL) of the LucLite® lysis/substrate buffer is added to each well and the plates are sealed and mixed in the dark on a rotary shaker for about 15 to about 30 minutes at room temperature. Luciferase readings are then taken on the TopCount® instrument. Measurements are expressed as relative light units (RLU) and are calculated and analyzed in the MS Excel® program as follows.
A compound is considered active in RRA if it leads to at least a 1.5 fold increase in luciferase activity at 20 μg/mL and is non-toxic, as determined by loss of signal (≦0.75 fold increase). Fold increase is the amount of luciferase activity (measured in relative light units) over diluent control. SEM represents the standard error of the mean for fold increase (not shown).

For orientation: EC50 means the midpoint of the concentration-response curve. A low value points to a more potent agent. With `C[C@H](NC(=O)Cc1cc(F)cc(F)c1)C(=O)N[C@H](C(=O)OC(C)(C)C)c1ccccc1` [DAPT], the values for the EC50 in assay [1] and in assay [2] were 128 nM and 171 nM, respectively. The “RRA data: fold increase of APPI (luciferase activity over diluent control)” value in assay [3] is given as 18.5-28.1 fold increase.
